# In patent US9573911B2, “Diphosphate mimetics and uses thereof” (President and Fellows of Harvard College, priority 2011, dated 2017):
# Experiments:
# Type in all cases: biochemical
# OGT = biological target: T1, OGT (Homo sapiens, UniProt O15294); assay: Time-dependent inactivation of OGT with BZX compounds
# T1 construct: hOGT4.5 construct (spanning residues 313-1031 based on the numbering of the full length human protein); made in house
# T1 sequence (O15294 313-1031 isoform O15294-3): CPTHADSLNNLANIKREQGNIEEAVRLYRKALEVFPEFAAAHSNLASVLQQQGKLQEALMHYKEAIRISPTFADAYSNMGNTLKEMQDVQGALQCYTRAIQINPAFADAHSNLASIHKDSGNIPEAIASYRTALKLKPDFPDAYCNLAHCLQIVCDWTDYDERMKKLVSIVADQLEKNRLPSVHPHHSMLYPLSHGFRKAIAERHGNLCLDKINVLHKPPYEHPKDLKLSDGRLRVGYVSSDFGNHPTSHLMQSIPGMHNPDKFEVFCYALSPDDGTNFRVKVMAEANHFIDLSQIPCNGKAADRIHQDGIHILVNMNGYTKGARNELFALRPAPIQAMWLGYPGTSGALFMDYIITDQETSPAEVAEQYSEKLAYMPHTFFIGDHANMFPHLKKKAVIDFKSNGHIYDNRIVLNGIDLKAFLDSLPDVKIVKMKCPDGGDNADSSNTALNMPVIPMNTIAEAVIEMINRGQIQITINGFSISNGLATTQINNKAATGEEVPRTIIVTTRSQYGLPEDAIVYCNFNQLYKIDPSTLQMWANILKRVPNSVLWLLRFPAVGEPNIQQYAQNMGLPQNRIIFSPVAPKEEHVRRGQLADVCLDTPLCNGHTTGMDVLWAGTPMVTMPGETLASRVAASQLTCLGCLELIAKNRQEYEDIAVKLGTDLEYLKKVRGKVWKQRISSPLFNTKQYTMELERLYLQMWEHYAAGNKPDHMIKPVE
# Description: Compound (1) was identified in a high-throughput screen of 65,000 compounds (FIG. 1). See, e.g., Gross et al., J. Am. Chem. Soc. (2005) 127:14588-14589. It contains a dicarbamate moiety that links two aromatic groups. This compound features a conjugated chemical structure and both carbamate carbonyls are potentially reactive. See, e.g., Alexander et al., Chem. Biol. (2005) 12:1179-1187. […] A small panel of related compounds was made from commercially available building blocks in order to identify structural features that might improve potency. Time-dependent inactivation studies were carried out in which OGT was preincubated with a three-fold excess of each compound for 5 min, and the mixture was then diluted 100-fold into buffer containing UDP-^14C-GlcNAc and the well-characterized peptide substrate, CKII. See, e.g., Kreppel et al., J. Biol. Chem. (1999) 274:32015-32022). Enzyme activity was measured using a previously developed peptide capture assay. See, e.g., Gross et al., J. Am. Chem. Soc. (2005) 127:14588-14589.
# Each BZX compound (7.5 μM) was preincubated with 5 μM OGT in reaction buffer (125 mM NaCl, 1 mM EDTA, 20 mM potassium phosphate, pH 7.4, and 500 μM tris(hydroxypropyl)phosphine (THP)) at room temperature for different amount of time, then diluted 100-fold, mixed with substrates (6 μM UDP-^14C-GlcNAc and 500 μM CKII peptide (KKKYPGGSTPVSSANMM)) and allowed to react for another 2 h. Enzyme activity was tested with the peptide capture assay as previously reported. See, e.g., Gross et al., J. Am. Chem. Soc. (2005) 127:14588-14589. The final volume of each reaction was 20 μl, and the experiments were conducted in triplicate. The activities of OGT mutants were also tested in triplicate as previously reported. See, e.g., Gross supra.
# CSK = biological target: T2, CSK (Homo sapiens, UniProt P41240); assay: Kinase profiling, Invitrogen Z'-LYTE; details: Table 2
# T2 construct: purchased Invitrogen
# Procedure: (§1) Kinase profiling was conducted using Invitrogen Z'-LYTE screening protocol and assay conditions found at www.invitrogen.com. Compound (2) inhibited PLK1 completely at 5 μM.
# AURKA (Aurora A) = biological target: T3, AURKA (Aurora A) (Homo sapiens, UniProt O14965); assay: Kinase profiling, Invitrogen Z'-LYTE; details: Table 2
# T3 construct: purchased Invitrogen
# T3 sequence (O14965 1-403): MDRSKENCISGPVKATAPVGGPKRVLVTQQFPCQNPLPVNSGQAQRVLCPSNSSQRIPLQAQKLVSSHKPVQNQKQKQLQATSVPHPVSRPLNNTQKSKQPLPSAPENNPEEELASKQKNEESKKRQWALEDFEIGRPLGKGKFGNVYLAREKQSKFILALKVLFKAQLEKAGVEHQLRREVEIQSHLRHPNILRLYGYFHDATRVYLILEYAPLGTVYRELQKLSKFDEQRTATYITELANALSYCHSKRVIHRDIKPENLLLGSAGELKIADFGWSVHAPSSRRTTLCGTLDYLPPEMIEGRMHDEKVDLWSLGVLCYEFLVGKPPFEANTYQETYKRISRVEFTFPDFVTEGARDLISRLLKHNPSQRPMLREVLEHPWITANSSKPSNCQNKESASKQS
# Procedure: as §1
# MAPKAPK5 (PRAK) = biological target: T4, MAPKAPK5 (PRAK) (Homo sapiens, UniProt Q8IW41); assay: Kinase profiling, Invitrogen Z'-LYTE; details: Table 2
# T4 construct: purchased Invitrogen
# T4 sequence (Q8IW41 1-473): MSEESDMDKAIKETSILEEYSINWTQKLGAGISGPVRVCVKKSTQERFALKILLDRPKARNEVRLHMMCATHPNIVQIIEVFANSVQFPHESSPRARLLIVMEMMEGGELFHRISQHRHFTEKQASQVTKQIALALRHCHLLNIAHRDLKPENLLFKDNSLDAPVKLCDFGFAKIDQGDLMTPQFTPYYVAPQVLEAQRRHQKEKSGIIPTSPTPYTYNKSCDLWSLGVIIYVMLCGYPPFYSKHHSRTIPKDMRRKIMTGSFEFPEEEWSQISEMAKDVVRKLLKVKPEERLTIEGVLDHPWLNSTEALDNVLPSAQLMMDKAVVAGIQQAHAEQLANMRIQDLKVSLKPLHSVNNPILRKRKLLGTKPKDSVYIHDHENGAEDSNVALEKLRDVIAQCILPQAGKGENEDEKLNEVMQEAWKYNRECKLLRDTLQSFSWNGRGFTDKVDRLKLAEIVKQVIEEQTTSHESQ
# Procedure: as §1
# CDK5/p25 = biological target: T5, CDK5/p25 (Homo sapiens, UniProt Q00535); assay: Kinase profiling, Invitrogen Z'-LYTE; details: Table 2
# T5 construct: purchased Invitrogen
# Procedure: as §1
# MARK3 = biological target: T6, MARK3 (Homo sapiens, UniProt P27448); assay: Further kinase screen, Invitrogen Z'-LYTE; details: Table 3
# T6 construct: purchased Invitrogen
# Procedure: as §1
# A further kinase screen was performed on Compounds (2), (4A), and (4B) using the assay described above.
# T5 sequence (Q00535 whole entry): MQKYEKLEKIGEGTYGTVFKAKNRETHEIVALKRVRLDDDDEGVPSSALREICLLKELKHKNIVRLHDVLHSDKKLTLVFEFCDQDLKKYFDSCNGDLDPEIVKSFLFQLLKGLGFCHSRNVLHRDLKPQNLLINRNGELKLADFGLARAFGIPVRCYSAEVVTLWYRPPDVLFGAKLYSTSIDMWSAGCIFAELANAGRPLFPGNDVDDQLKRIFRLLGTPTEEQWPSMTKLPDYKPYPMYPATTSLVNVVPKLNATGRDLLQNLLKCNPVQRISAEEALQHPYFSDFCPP
# T5 sequence (Q15078 99-307 partner limits assumed): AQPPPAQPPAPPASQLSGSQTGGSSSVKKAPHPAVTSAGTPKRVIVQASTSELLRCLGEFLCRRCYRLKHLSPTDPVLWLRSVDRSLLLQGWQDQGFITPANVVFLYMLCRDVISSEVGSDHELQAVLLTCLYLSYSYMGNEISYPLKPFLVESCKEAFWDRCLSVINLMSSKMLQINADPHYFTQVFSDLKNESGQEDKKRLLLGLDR
# T6 sequence (P27448 whole entry): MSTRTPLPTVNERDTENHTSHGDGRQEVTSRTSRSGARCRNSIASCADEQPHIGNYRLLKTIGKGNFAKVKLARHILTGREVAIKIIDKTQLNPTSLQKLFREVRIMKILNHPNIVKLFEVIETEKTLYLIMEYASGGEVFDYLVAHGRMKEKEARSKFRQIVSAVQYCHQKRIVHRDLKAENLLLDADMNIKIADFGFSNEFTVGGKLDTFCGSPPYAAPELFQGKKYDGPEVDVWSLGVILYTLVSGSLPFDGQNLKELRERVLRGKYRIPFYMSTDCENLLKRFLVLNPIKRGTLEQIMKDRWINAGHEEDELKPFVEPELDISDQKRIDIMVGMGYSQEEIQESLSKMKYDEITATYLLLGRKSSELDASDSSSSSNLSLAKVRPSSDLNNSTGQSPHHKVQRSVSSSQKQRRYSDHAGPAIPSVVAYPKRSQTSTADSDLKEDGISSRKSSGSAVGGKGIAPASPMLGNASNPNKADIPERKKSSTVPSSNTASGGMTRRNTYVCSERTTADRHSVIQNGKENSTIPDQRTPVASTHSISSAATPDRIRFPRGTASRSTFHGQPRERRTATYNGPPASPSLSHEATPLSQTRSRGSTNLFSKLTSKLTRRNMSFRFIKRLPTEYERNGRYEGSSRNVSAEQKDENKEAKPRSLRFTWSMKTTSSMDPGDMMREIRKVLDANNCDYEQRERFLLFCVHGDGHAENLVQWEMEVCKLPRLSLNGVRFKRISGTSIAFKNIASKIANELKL
% Inhibition Point 1 (MARK3),% Inhibition Point 2 (MARK3),% Inhibition mean (MARK3),SMILES,inactivation time course of OGT (OGT; 1.5:1 inhibitor:enzyme ratio),"OGT inactivation in the presence of UDP-GlcNAc in the preincubation mixture (OGT; OGT 5 μM, compound 20 μM, UDP-GlcNAc 40 μM, 2-20 min)",time to full inactivation of OGT (OGT; near 1:1 ratio),% Inhibition Point 1 (CSK),% Inhibition Point 2 (CSK),% Inhibition mean (CSK),% Inhibition Point 1 (AURKA (Aurora A)),% Inhibition Point 2 (AURKA (Aurora A)),% Inhibition mean (AURKA (Aurora A)),% Inhibition Point 1 (MAPKAPK5 (PRAK)),% Inhibition Point 2 (MAPKAPK5 (PRAK)),% Inhibition mean (MAPKAPK5 (PRAK)),% Inhibition Point 1 (CDK5/p25),% Inhibition Point 2 (CDK5/p25),% Inhibition mean (CDK5/p25)
–,–,–,COc1ccc(OC(=O)n2c(=O)oc3cc(C(C)=O)ccc32)cc1 [Compound 2],fully inactivated OGT,UDP-GlcNAc reduced the rate of inactivation,≤ 5 min,−42%,−60%,−51%,−146%,−146%,−146%,−146%,−147%,−146%,−322%,−286%,−304%
8%,12%,10%,COc1ccc(OC(=S)n2c(=O)oc3cc(C(C)=O)ccc32)cc1 [Compound 4A],–,–,–,–,–,–,–,–,–,–,–,–,–,–,–
34%,36%,35%,COc1ccc(OC(=O)n2c(=S)oc3cc(C(C)=O)ccc32)cc1 [Compound 4B],–,–,–,–,–,–,–,–,–,–,–,–,–,–,–
